# Experiments:
# [1] = system: P388 leukemia; assay: P388 leukemia in vivo (increase in lifespan of mice, i.p. tumour); conditions: for ILSmax (percentage increase in lifespan) / ILSmax (percentage increase in lifespan), marked *: P388, at OD on days 1, 5, 9, >20% statistically significant; for ILSmax (percentage increase in lifespan): values without asterisk, controls 11 days; for active (P388): P388, at the stated dose
# [2] = system: Lewis lung carcinoma; assay: Lewis lung carcinoma in vivo (increase in lifespan of mice, i.v. tumour); conditions: Lewis lung; for ILS (percentage increase in lifespan), marked * / ILS (percentage increase in lifespan): at OD on days 1, 5, 9, >40% statistically significant; for active (Lewis lung): at the stated dose; for ILS (percentage increase in lifespan): values without asterisk, controls 17 days
Compound,ILSmax (percentage increase in lifespan) [1] [%],active (P388) [1],also measured
CNc1cc(NS(C)(=O)=O)ccc1Nc1c2ccccc2nc2cc(Br)ccc12 [Compound 7],94,Y,
CNc1cc(NP(=O)(OC)OC)ccc1Nc1c2ccccc2nc2cc(Br)ccc12 [Compound 48],77,Y,
CNc1cc(NS(=O)(=O)c2ccccc2)ccc1Nc1c2ccccc2nc2ccccc12 [Compound 60],117,Y,
CNc1cc(NC(=O)OC)ccc1Nc1c2ccccc2nc2c(C)cccc12 [Compound 58],114,Y,"ILS (percentage increase in lifespan), marked * [2]: 48%; active (Lewis lung) [2]: Y"
CNc1cc(NS(C)(=O)=O)ccc1Nc1c2ccc(Cl)cc2nc2c(OC)cccc12 [Compound 20],105,Y,
CNc1cc(NC(=O)OC)ccc1Nc1c2ccc(Br)cc2nc2c(C)cccc12 [Compound 57],97,Y,"ILS (percentage increase in lifespan), marked * [2]: 82%; active (Lewis lung) [2]: Y"
COC(=O)Nc1ccc(Nc2c3ccccc3nc3ccccc23)c(NCCO)c1 [Compound 51],121,Y,
CNc1cc(NS(C)(=O)=O)ccc1Nc1c2cccc(C)c2nc2c(C)cccc12 [Compound 25],107,Y,
CN(C)c1cc(NS(C)(=O)=O)ccc1Nc1c2ccccc2nc2ccccc12 [Compound 32],,Y,"ILSmax (percentage increase in lifespan), marked * [1]: 212%; cured animals ([2]; at OD): all cured; ILS (percentage increase in lifespan) [2]: > 250%; active (Lewis lung) [2]: Y"
CNc1cc(NS(C)(=O)=O)ccc1Nc1c2cccc(OC)c2nc2c(OC)cccc12 [Compound 26],84,Y,
CNc1ccc2c(Nc3ccc(NS(C)(=O)=O)cc3NC)c3ccccc3nc2c1 [Compound 10],,Y,"ILSmax (percentage increase in lifespan), marked * [1]: 208%"
COC(=O)Nc1ccc(Nc2c3ccccc3nc3ccccc23)c(N(C)C)c1 [Compound 59],51,Y,
CNc1cc(NC(=O)OC)ccc1Nc1c2ccc(Cl)cc2nc2c(C)cccc12 [Compound 56],,Y,"ILSmax (percentage increase in lifespan), marked * [1]: 151%; ILS (percentage increase in lifespan) [2]: 100%; active (Lewis lung) [2]: Y"
CNC(=O)c1cccc2c(Nc3ccc(NS(C)(=O)=O)cc3NC)c3ccc(Cl)cc3nc12 [Compound 23],59,Y,
CS(=O)(=O)Nc1ccc(Nc2c3ccccc3nc3ccccc23)c(NCCO)c1 [Compound 27],89,Y,
CNc1cc(NS(C)(=O)=O)ccc1Nc1c2ccc(C)cc2nc2c(OC)cccc12 [Compound 22],122,Y,
CN(CCO)c1cc(NS(C)(=O)=O)ccc1Nc1c2ccccc2nc2ccccc12 [Compound 45],,Y,"ILSmax (percentage increase in lifespan), marked * [1]: 100%"
CNc1cc(NP(=O)(OC)OC)ccc1Nc1c2ccccc2nc2c(C)cccc12 [Compound 49],91,Y,
CNc1cc(NS(=O)(=O)c2ccc(N)cc2)ccc1Nc1c2ccccc2nc2ccccc12 [Compound 62],104,Y,
Cc1cccc2c(Nc3ccc(NS(C)(=O)=O)cc3N(C)CCO)c3ccccc3nc12 [Compound 46],,Y,"ILSmax (percentage increase in lifespan), marked * [1]: 152%"
CNc1cc(NS(C)(=O)=O)ccc1Nc1c2ccc(OC)cc2nc2c(C)cccc12 [Compound 17],102,Y,
Cc1cccc2c(Nc3ccc(NS(C)(=O)=O)cc3NCC(O)CO)c3ccccc3nc12 (stereo not drawn) [Compound 31],83,Y,
CNc1cc(NS(C)(=O)=O)ccc1Nc1c2ccccc2nc2cc(OC)ccc12 [Compound 4],,Y,"ILSmax (percentage increase in lifespan), marked * [1]: 140%"
CNc1cc(NC(=O)OC)ccc1Nc1c2ccccc2nc2cc(Cl)ccc12 [Compound 54],104,Y,

Compound,ILSmax (percentage increase in lifespan) [1] [%],active (P388) [1],also measured
Nc1ccc(S(=O)(=O)Nc2ccc(Nc3c4ccccc4nc4ccccc34)c(NCCO)c2)cc1 [Compound 65],50,Y,
CNc1cc(NS(C)(=O)=O)ccc1Nc1c2ccccc2nc2cc([N+](=O)[O-])ccc12 [Compound 9],70,Y,
CNc1cc(NS(C)(=O)=O)ccc1Nc1c2ccccc2nc2cc(F)ccc12 [Compound 5],,Y,"ILSmax (percentage increase in lifespan), marked * [1]: 157%"
CS(=O)(=O)Nc1ccc(Nc2c3ccccc3nc3ccccc23)c(NCC(O)CO)c1 (stereo not drawn) [Compound 30],84,Y,
CNc1cc(NS(C)(=O)=O)ccc1Nc1c2ccccc2nc2cc(I)ccc12 [Compound 8],80,Y,
O=S(=O)(Nc1ccc(Nc2c3ccccc3nc3ccccc23)c(NCCO)c1)c1ccccc1 [Compound 61],81,Y,
CNc1cc(NC(=O)OC)ccc1Nc1c2ccccc2nc2cc(C)ccc12 [Compound 52],86,Y,
CNc1cc(NS(C)(=O)=O)ccc1Nc1c2ccccc2nc2cc(C)ccc12 [Compound 3],83,Y,
CNc1cc(NS(C)(=O)=O)ccc1Nc1c2ccc(C)cc2nc2c(C)cccc12 [Compound 16],92,Y,
CNc1cc(NS(=O)(=O)c2ccc(N)cc2)ccc1Nc1c2ccccc2nc2cc(Br)ccc12 [Compound 63],115,Y,
CNc1cc(NS(C)(=O)=O)ccc1Nc1c2ccc(Cl)cc2nc2c(C)cccc12 [Compound 19],,Y,"ILSmax (percentage increase in lifespan), marked * [1]: 128%; ILS (percentage increase in lifespan) [2]: 126%; active (Lewis lung) [2]: Y"
CNC(=O)c1cccc2c(Nc3ccc(NS(C)(=O)=O)cc3NC)c3cccc(C)c3nc12 [Compound 24],94,Y,
CS(=O)(=O)Nc1ccc(Nc2c3ccccc3nc3cc(Br)ccc23)c(NCCO)c1 [Compound 28],117,Y,
CNc1cc(NS(C)(=O)=O)ccc1Nc1c2ccccc2nc2cc(Cl)ccc12 [Compound 6],,Y,"ILSmax (percentage increase in lifespan), marked * [1]: 149%"
CNC(=O)c1cccc2c(Nc3ccc(NS(C)(=O)=O)cc3NC)c3ccccc3nc12 [Compound 15],82,Y,
CNc1cc(NS(C)(=O)=O)ccc1Nc1c2ccc(Br)cc2nc2c(C)cccc12 [Compound 21],122,Y,
CNc1cc(NP(=O)(OC)OC)ccc1Nc1c2ccccc2nc2ccccc12 [Compound 47],118,Y,
Cc1cccc2c(Nc3ccc(NS(C)(=O)=O)cc3NCCO)c3ccccc3nc12 [Compound 29],,Y,"ILSmax (percentage increase in lifespan), marked * [1]: 159%"
CNc1cc(NC(=O)Oc2ccccc2)ccc1Nc1c2ccccc2nc2ccccc12 [Compound 66],71,Y,
CNc1cc(NS(=O)(=O)c2ccc(N)cc2)ccc1Nc1c2ccccc2nc2c(C)cccc12 [Compound 64],139,Y,
CNc1cc(NS(C)(=O)=O)ccc1Nc1c2ccccc2nc2cc(NC(=O)OC)ccc12 [Compound 11],,Y,"ILSmax (percentage increase in lifespan), marked * [1]: 135%"
CNc1cc(NC(=O)OC)ccc1Nc1c2ccccc2nc2cc(Br)ccc12 [Compound 55],101,Y,
CNc1cc(NC(=O)OC)ccc1Nc1c2ccccc2nc2cc(F)ccc12 [Compound 53],110,Y,

# Source: patent US4795826A, “Ortho-phenylenediamine compounds” (priority 1986, dated 1989)
